≈ marks a conversion by molar mass, not a printed value. Entries after “also recorded” stand apart in the source; their conditions may differ.
Assays:
[1] = tested on: mammary adenocarcinoma 16C tumor cells; assay: Mamma Adenocarcinoma 16C Cytotoxicity Assay; format: cell-based; details: ID50 ≤250 μg/mL assessed as cytostatically active
Experimental: (§1) 4-Acetamino-N-(2'-aminophenyl) benzamide was used as an example of a compound according to the present invention and compared with […] as standard, the outstanding inhibition action of which against various experimental tumors in vitro and in vivo is known. The testing was carried out in vivo with SD-rats against MNU-induced mammary adenocarcinoma and acetoxymethylmethylnitrosamine-induced (AMMN-induced) colon adenocarcinoma. The testing was carried out in vitro in the "colorimetric-cytotoxicity assay" using L1210 and mammary adenocarcinoma 16C tumor cells. In this test system, substances with ID50 values of ≤250 μg/mL are assessed as being cytostatically active.

[2] = Acute intragastral toxicity (LD50), 7-day observation; format: in vivo; details: male mice
L1210 tumor cells = assay: L1210 Colorimetric Cytotoxicity Assay; format: cell-based; details: for IC50: Mus musculus, L1210, ID50 ≤250 μg/mL assessed as cytostatically active
Experimental: as §1

[3] = Pharmacokinetic experiments on rats (plasma level, AUC, half-life, bioavailability); format: in vivo
Experimental: FIG. 1 is the AUC, rat, after administration of 4-acetamino-N-(2'-aminophenyl)benzamide. The * is intragastral administration (2 mg/kg; 10 mg/kg; 50 mg/kg). The * is intravenous administration (10 mg/kg).
In FIG. 2 the average plasma level of 4-amino-N-(2'-aminophenyl)-benzamide in rats after single administration of 10 mg/kg intragastrally (n=4).
The bioavailability of the active material according to the present invention is 100%. […] This is shown graphically in FIG. 1 of the accompanying drawings.

[4] = tested on: acetoxymethylmethylnitrosamine-induced (AMMN-induced) colon adenocarcinoma; assay: AMMN-induced colon adenocarcinoma in SD rats; format: in vivo, Male SD-rats; details: for antineoplastic effect (in words): 10-week treatment, 5 days per week
Experimental: as §1
The activity of the compounds A, B, and C was tested in vivo against AMMN-induced colon adenocarcinoma. Male SD-rats were given 2 mg/kg/week acetoxymethylmethylnitrosamine (AMMN) intrarectally for a period of 10 weeks for tumor induction. Animals with manifest tumors were assigned randomly to the test groups.
^a Application via gastric tube, 5 days per week
The animals were examined twice daily. After the 10-week treatment period, the animals were sacrificed and a total necropsy performed. All tumors were individually measured and their volumes added to a total tumor volume.

[5] = tested on: methylnitrosurea-induced (MNU-induced) mammary adenocarcinoma; assay: MNU-induced mammary adenocarcinoma in SD rats; format: in vivo, female SD rats
Experimental: FIGS. 5 and 6 show the antineoplastic effect of compounds A, B, C at equimolar doses (33 μmol/kg/day); is control; Δ is compound C (8.0 mg/kg), .smallcircle. is compound B (7.5 mg/kg), and .quadrature. is compound A (8.9 mg/kg).
as §1
The in vivo activity of 4-acetamino-N-(2'-aminophenyl)-benzamide was tested against primary mammary adenocarcinoma induced by 3 single IV administrations of methylnitrosurea on Days 50, 71, and 92 following birth in female SD rats. As soon as tumor volumes ≥0.8 cm^3 were reached, test animals were randomized and therapy was started. […] Median tumor volumes and numbers were determined weekly and compared with untreated controls.

Nc1ccccc1NC(=O)c1ccc(NC(=O)CCO)cc1 [4-(β-hydroxypropionylamino)-N-(2'-aminophenyl)-benzamide]
IC50 [1]: 0.77 µg/mL (≈ 2.57 µM)

Nc1ccccc1NC(=O)c1ccc(NC=O)cc1 [4-Formylamino-N-(2'-aminophenyl)-benzamide]
IC50 [1]: 0.4 µg/mL (≈ 1.57 µM)

Nc1ccccc1NC(=O)c1ccc(NC(=O)CO)cc1 [4-Glycoloylamino-N-(2'-aminophenyl)-benzamide]
IC50 [1]: 0.62 µg/mL (≈ 2.17 µM)

CC(C)C(=O)Nc1ccc(C(=O)Nc2ccccc2N)cc1 [4-isobutyrylamino-N-(2'-aminophenyl)-benzamide]
IC50 [1]: 0.32 µg/mL (≈ 1.08 µM)

CC(=O)Nc1ccc(C(=O)Nc2ccccc2N)cc1 [Compound A, 4-Acetamino-N-(2'-aminophenyl)-benzamide]
IC50 [1]: 0.73 µg/mL (≈ 2.71 µM) | acute toxicity versus comparison standard (in words) ([2]; acute intragastral administration): considerably less toxic | LD50 at 168 h ([2]; mouse, in vivo, po, acute intragastral, n=4, 7-day observation): 1600 mg/kg | IC50 (L1210 tumor cells): 3.75 µg/mL (≈ 13.9 µM) | cytostatic activity (in words) (L1210 tumor cells; Table 1: L1210 and mammary adenocarcinoma 16C, versus comparison standard): acts outstandingly cytostatically; also recorded: about the same or better as that of the comparison standard | half-life ([3]; rat, in vivo): 4.2 to 4.5 h | half-life time versus standard (in words) ([3]; rat, in vivo): longer half-life time | bioavailability ([3]; rat, in vivo, po, 10 mg/kg): 100% | intestinal resorption (in words) ([3]; rats): quickly, completely, and dosage-linearly | tumor growth (in words) ([4]; 7.0 mg/kg/day): completely inhibited further growth of colon carcinoma | T/C ([4]; 7.0 mg/kg/day, gastric tube, 10 weeks): 11.1% | tumor growth inhibition (in words) ([4]; 11.9 mg/kg): the growth inhibition is much less | T/C ([4]; 11.9 mg/kg, gastric tube, 10 weeks): about 5% | antineoplastic effect (in words) ([4]; gastric tube): very efficient | antineoplastic effect at equimolar doses (in words) ([5]; 33 μmol/kg/day, A 8.9, B 7.5, C 8.0 mg/kg): shows the highest antineoplastic effect | tumor growth, dose dependence and inhibition (in words) ([5]; FIG. 4, 7.5, 10, 12.5 mg/kg intragastrally, 5 times/week for 5 weeks): affects tumor growth in a dose-dependent manner with almost complete tumor growth inhibition in the highest dose group

Nc1ccc(C(=O)Nc2ccccc2N)cc1 [Compound B, 4-Amino-N-(2'-aminophenyl)-benzamide, reference compound]
IC50 [1]: 0.69 µg/mL (≈ 3.04 µM) | IC50 (L1210 tumor cells): 2.78 µg/mL (≈ 12.2 µM) | half-life ([3]; rat, in vivo, po, 10 mg/kg): ~0.25 h | tumor growth (in words) ([4]; 5.9 mg/kg/day): arrest of tumor growth | relative median tumor volume T/C ([4]; 5.9 mg/kg/day=26 μmol/kg/day, gastric tube, 10 weeks): 10.6% | antineoplastic effect (in words) ([4]; gastric tube): very efficient

CNc1ccc(C(=O)Nc2ccccc2N)cc1 [Compound C, 4-Methylamino-N-(2'-aminophenyl)-benzamide, reference compound]
IC50 (L1210 tumor cells): 4.04 µg/mL (≈ 16.7 µM)

From patent US5137918A, “N-(2'-aminophenyl)-benzamide derivatives process for the preparation thereof and pharmaceutical compositions containing them” (priority 1986, dated 1992)
